Results reported in US20120035135A1, “Treatment of Transgenic Crops with Mixtures of Fiproles and Chloronicotinyls” (Bayer CropScience AG, priority 2008, published 2012).

What was measured:
Assay type in all cases: in vivo
[1] = system: Spodoptera frugiperda; experiment: Spodoptera frugiperda test (leaf application) on transgenic cotton; conditions: 24 h, after 1 d
From the text: (§1) The expected activity for a given combination of two (or more) active compounds can be calculated (cf. COLBY, S. R.; “Calculating Synergistic and Antagonistic Responses of Herbicide Combinations”, Weeds 15, pages 20-22, 1967):′
(§2) If • X=the kill rate, expressed in % of the untreated control, when employing active compound A at an application rate of m ppm or m g/ha, • Y=the kill rate, expressed in % of the untreated control, when employing active compound B at an application rate of n ppm or n g/ha, • Z=the kill rate, expressed in % of the untreated control, when employing active compound C at an application rate of r ppm or r g/ha, • E=the kill rate, expressed in % of the untreated control, when employing active compounds A and B and C at application rates of m, n, and r ppm or m, n, and r g/ha, then for a combination of two ore more components
(§3) If the actual insecticidal kill rate is higher than the calculated one, the kill rates of the combination are super additive, i.e. a synergistic effect is present. In this case, the kill rate that is actually observed has to be higher than the value, calculated using the formula above, for the expected kill rate (E).
Transgenic cotton plants containing lepidoptera and herbicide resistance were treated with the respective products against the fall army worm (Spodoptera frugiperda).
(§4) After the specified period of time, the mortality in % is determined. 100% means that all the caterpillars have been killed; 0% means that none of the caterpillars have been killed.

[2] = system: Spodoptera exigua; experiment: Spodoptera exigua test (leaf application) on transgenic corn; conditions: 96 h, after 4 d
From the text: as §1, §2, §3
Transgenic corn plants containing lepidoptera, coleoptera and/or herbicide resistance were treated with the respective products against the beet army worm (Spodoptera exigua).
as §4

[3] = system: Spodoptera frugiperda; experiment: Spodoptera frugiperda test (leaf application) on transgenic corn; conditions: 96 h, after 4 d
From the text: as §1, §2
as §3, with “(E). […]” for “(E).”
(§5) After the specified period of time, the mortality in % is determined. […]

[4] = system: Spodoptera frugiperda; experiment: Spodoptera frugiperda test (drench application) on transgenic corn; conditions: soil, 96 h, after 4 d
From the text: as §1, §2
as §3, with “(E). […]” for “(E).”
as §5

Compound | mortality at 20 ppm [1] [%] | mortality at 4 ppm ([2]; 4 ppm) [%] | mortality at 4 ppm ([3]; 4 ppm) [%] | mortality at 20 ppm ([4]; 20 ppm) [%] | mortality at 20 ppm ([2]; 20 ppm) [%] | mortality at 100 ppm ([2]; 100 ppm) [%] | mortality at 100 ppm ([1]; 100 ppm) [%] | mortality at 100 ppm ([3]; 100 ppm) [%] | mortality at 100 ppm ([4]; 100 ppm) [%]
CC[S+]([O-])c1c(C#N)nn(-c2c(Cl)cc(C(F)(F)F)cc2Cl)c1N (stereo not shown) [Ethiprole, ethiprole] | 0 | – | – | – | – | – | – | – | –
N#Cc1nn(-c2c(Cl)cc(C(F)(F)F)cc2Cl)c(N)c1[S+]([O-])C(F)(F)F (stereo not shown) [Fipronil, fipronil] | 0 | 0 | 15 | 0 | – | – | – | – | –
O=[N+]([O-])NC1=NCCN1Cc1ccc(Cl)nc1 [Imidacloprid, imidacloprid] | – | – | – | – | 0 | 10 | 50 | 15 | 0
